The term mortality denotes the share of the test organisms that died.

Holding throughout (assay type): in vivo
Series [1] deals with Diamond Back Moth (Plutella xylostella). Nature of the series: Test Example 1: insecticidal effect on diamond back moth, immersion of Chinese cabbage seedling bearing eggs. The settings on record: seedling with eggs immersed about 30 seconds, counted six days after immersion, 25° C.; for mortality at 5 ppm / mortality at 50 ppm: Plutella xylostella, 144 h, read-out: Test Example 1 insecticidal effect (mortality criterion). The text has this: Insecticidal Effect on Diamond Back Moth (Plutella xylostella)
Adult diamond back moths were released and allowed to oviposit on a Chinese cabbage seedling. Two days after the release, the seedling having the eggs deposited thereon was immersed for about 30 seconds in a liquid chemical prepared by diluting a preparation containing each compound listed in Table 1 or 2 as an active ingredient to adjust the prescribed concentration. After air-dryness, it was allowed to stand in a room thermostatted at 25° C. Six days after the immersion, the hatched insects were counted. The mortality was calculated according to the following equation and the insecticidal effect was judged according to the criterion shown below. The test was carried out with triplicate groups of 10 insects. [formula]
The compounds described in JP-A-2001-131141 were used as comparative compounds as follows: […]

Series [2] relates to Common Cutworm (Spodoptera litura). Briefly: Test Example 2: insecticidal effect on common cutworm, cabbage leaf dip, second-instar larvae. As to conditions: cabbage leaf immersed about 30 seconds, counted eight days after inoculation, 25° C.; for mortality at 5 ppm / mortality at 50 ppm: Spodoptera litura, foliar, 192 h, read-out: Test Example 2 insecticidal effect (mortality criterion). From the text:
Insecticidal Effect on Common Cutworm (Spodoptera litura)
A piece of cabbage leaf (cultivar; Shikidori) was immersed for about 30 seconds in a liquid chemical prepared by diluting a preparation containing each compound listed in Table 1 or 2 as an active ingredient to adjust the prescribed concentration. After air-dryness, it was placed in a plastic Petri dish with a diameter of 9 cm and inoculated with second-instar larvae of common cutworm, after which the dish was closed and then allowed to stand in a room thermostatted at 25° C. Eight days after the inoculation, the dead and alive were counted. The mortality was calculated according to the following equation and the insecticidal effect was judged according to the criterion shown in Test Example 1. The test was carried out with triplicate groups of 10 insects. [formula]

In series [3] the test system is diamondback moth (Plutella xylostella). Nature of the series: Test Example 3: controlling effect on diamondback moth by soil treatment for cabbage (planting-hole granules). As to conditions: 20 mgAI/plant granules in planting hole; for Number of parasites/3 plants After 18 days: 18 days after trans-planting; for Number of parasites/3 plants After 25 days: 25 days after trans-planting; for Number of parasites/3 plants After 32 days: 32 days after trans-planting; for Number of parasites/3 plants After 42 days: 42 days after trans-planting. On the procedure: Controlling effect on diamondback moth (Plutella xylostella) by soil treatment for cabbage At the time of trans-planting cabbage plants (cultivar: YR Seitoku), planting holes were treated with granules prepared from the compound listed in Table 1 or 2 according to Formulation Example. Diamondback moths parasitic on the cabbage plants were counted on predetermined days after the trans-planting. In Table 4, mgAI/plant denotes the dosage (mg) of the active ingredient per plant.

Consider `CSCC(C)NC(=O)c1cccc(I)c1C(=O)Nc1ccc(Cl)cc1C` (stereo not shown) [A, N^2-(4-chloro-2-methylphenyl)-3-iodo-N^1-(1-methyl-2-methylthioethyl)phthalamide, reference compound], for which the mortality at 5 ppm in series [1] (5 ppm) is 0 to 49%. Moreover, the mortality at 50 ppm in series [1] (50 ppm) came out at 100%. Besides, in series [2], the mortality at 5 ppm fell in the range of 0 to 49%. The mortality at 50 ppm in series [2] (50 ppm) fell in the range of 0 to 49%. Further, in series [3], the “Number of parasites/3 plants After 18 days” value turned out to be 8 parasites/3 plants, the “Number of parasites/3 plants After 25 days” value turned out to be 75 parasites/3 plants, the “Number of parasites/3 plants After 32 days” value stood at 143 parasites/3 plants and the “Number of parasites/3 plants After 42 days” value came to 146 parasites/3 plants.

On to `CCSCC(C)NC(=O)c1cccc(I)c1C(=O)Nc1ccc(Cl)cc1C` (stereo not shown) [B, N^2-(4-chloro-2-methylphenyl) -3-iodo-N^1-(2-ethylthio-1-methylethyl)phthalamide, reference compound], for which the mortality at 5 ppm in series [1] (5 ppm) and in series [2] was 0 to 49% throughout. In addition, the mortality at 50 ppm in series [1] (50 ppm) is 100%; in series [2] (50 ppm), 0 to 49%.

In the case of `Cc1cc(Cl)ccc1NC(=O)c1cccc(I)c1C(=O)NC(C)(C)C[S+](C)[O-]` (stereo not shown) [compound 25], in series [3], the “Number of parasites/3 plants After 18 days” value turned out to be 0 parasites/3 plants, the “Number of parasites/3 plants After 25 days” value was found to be 0 parasites/3 plants, the “Number of parasites/3 plants After 32 days” value was 6 parasites/3 plants and the “Number of parasites/3 plants After 42 days” value amounted to 22 parasites/3 plants.

In the case of `Cc1cc(Br)ccc1NC(=O)c1cccc(I)c1C(=O)NC(C)(C)C[S+](C)[O-]` (stereo not shown) [compound 28], in series [3], the “Number of parasites/3 plants After 18 days” value came out at 0 parasites/3 plants, the “Number of parasites/3 plants After 25 days” value came to 7 parasites/3 plants, the “Number of parasites/3 plants After 32 days” value amounted to 23 parasites/3 plants and the “Number of parasites/3 plants After 42 days” value came out at 59 parasites/3 plants.

As for `CSCC(C)(C)NC(=O)c1c(I)cccc1C(=O)Nc1ccc(I)cc1C` [compound 30, N^2-(1,1-dimethyl-2-methylthioethyl)-3-iodo-N^1-(4-iodo-2-methylphenyl)phthalamide], the mortality at 5 ppm in series [1] (5 ppm) worked out at 100%. Moreover, the mortality at 50 ppm in series [1] (50 ppm) was found to be 100%. Moreover, the mortality at 5 ppm in series [2] was in the range of 0 to 49%. Moreover, the mortality at 50 ppm in series [2] (50 ppm) is 100%. Moreover, in series [3], the “Number of parasites/3 plants After 18 days” value is 0 parasites/3 plants, the “Number of parasites/3 plants After 25 days” value was determined as 9 parasites/3 plants, the “Number of parasites/3 plants After 32 days” value turned out to be 19 parasites/3 plants and the “Number of parasites/3 plants After 42 days” value came to 37 parasites/3 plants.

On to `Cc1cc(I)ccc1NC(=O)c1cccc(I)c1C(=O)NC(C)(C)C[S+](C)[O-]` (stereo not shown) [compound 31, N^2-(1,1-dimethyl-2-methylsulfinylethyl)-3-iodo-N^1-(4-iodo-2-methylphenyl)phthalamide], for which the mortality at 5 ppm in series [1] (5 ppm) is 100%; in series [2], 0 to 49%. The mortality at 50 ppm in series [1] (50 ppm) and in series [2] (50 ppm) was 100% in each case.

In the case of `Cc1cc(I)ccc1NC(=O)c1cccc(I)c1C(=O)NC(C)(C)CS(C)(=O)=O` [compound 32, N^2-(1,1-dimethyl-2-methylsulfonylethyl)-3-iodo-N^1-(4-iodo-2-methylphenyl)phthalamide], the values for the mortality at 5 ppm in series [1] (5 ppm) and in series [2] were 100% and 0 to 49%, respectively. Moreover, the mortality at 50 ppm in series [1] (50 ppm) and in series [2] (50 ppm) was 100% each time.

In the case of `CC(C)(CS(C)(=O)=O)NC(=O)c1c(I)cccc1C(=O)Nc1ccc(Cl)cc1Cl` [compound 101], the “Test Example 1 insecticidal effect (mortality criterion)” value in series [1] (5 ppm) and in series [1] (50 ppm) was “A (Mortality 100%)” in each case.

Consider `CSCC(C)(C)NC(=O)c1c(I)cccc1C(=O)Nc1ccc(Cl)c(C(F)(F)F)c1Cl` [compound 142], for which the “Test Example 1 insecticidal effect (mortality criterion)” value in series [1] (50 ppm) is recorded as “A (Mortality 100%)”. In addition, in series [2] (50 ppm), the “Test Example 2 insecticidal effect (mortality criterion)” value is listed as “A (Mortality 100%)”.

The values above are taken from patent US20040116299A1, “Phthalamide derivates, insecticides for agricultural and horticultural use and method for application thereof” (priority 2001, published 2004).
